Source: article PMC6010047, “Design, synthesis and biological evaluation of novel hydroxy-phenyl-1H-benzimidazoles as radical scavengers and UV-protective agents” (Journal of Enzyme Inhibition and Medicinal Chemistry, 2017)
Like-named read-outs stand apart in the source and are kept apart here.

Assays:
[1] = 1,1-Diphenyl-2-picryl-hydrazyl radical (DPPH) assay; type: biochemical; settings: Trolox equivalents; mean ± SE of three experiments
Experimental: To 1.5 mL DPPH methanolic solution (0.5 mM) was added 0.750 mL of sample solution proper diluted. Samples absorbance measurements were evaluated with a UV-VIS spectrophotometer (Thermo Spectronic Helios γ, Cambridge, UK) at fixed wavelength of 517 nm. Blank sample was prepared adding methanol to DPPH solution and Trolox was used as standard reference to achieve a calibration curve. The radical-scavenging activity is expressed as inhibition ratio of initial concentration of DPPH radical and is calculated according to the formula: Inhibition percentage (Ip) = [(AB-As)/AB]·100; where AB and As are, respectively, the absorbance values of blank reaction and of the tested sample[25].

[2] = UV spectra: λmax and molar extinction coefficient; type: physicochemical
Experimental: Sun protection factor (SPF) is related to the UV absorption of the substances, so before including the molecules in cosmetic formulations we evaluated the wavelength of maximum absorption (λmax) and the molar extinction coefficient (ɛ) of each molecule in aqueous solution at pH 7. The UV spectra were recorded between 270 and 420 nm (20 nm higher and lower then UVA and UVB range) to verify the spectrum profile of the molecules within UVA and UVB region. UV spectrum of PBSA is an UVB filter and presents a λmax of 302 nm; after this peak, the absorbance fades going to higher wavelength until almost zero around 325 nm, and then, it provides no absorption in the UVA region. Molecules spectra overlapped for category according to the substituent in position 5 of the benzimidazole ring are shown in Figures 1, 2 and 3; PBSA spectrum is presented in all figures for comparison.
From the spectra appears that the lambda maxima (Table 2) of the new molecules shifted toward higher wavelength and in general the range of absorption curve was wider than PBSA. Within a group of molecules, the batochromic shift was more marked for the molecules that have a hydroxyl moiety in position 2 of the phenyl ring (4, 5, 6, 9, 10, 11, 13 and […]); the effect of ortho substituted is known to produce this shift toward higher wavelength. Increasing the number of auxochrome groups on phenyl ring an increment in the absorption range occurred, compounds with three hydroxyl on the phenyl ring (6, 11, 15) had the broadest spectrum and their lambda maxima shifted at the highest wavelength compared to the other compounds. The absorption spectrum of molecules with the same number and position of hydroxyl seemed only slightly influenced by the substituent in position 5 of the benzimidazole ring. After having established the lambda maxima for every compound, solutions at different concentrations were prepared to calculate the molar extinction coefficient by means of linear regression and applying Lambert–Beer equation (Table 2).

[3] = PCL antioxidant activity of finished formulations; type: biochemical; settings: 3% (w/w) compound in O/W formulation
Experimental: PCL assay, based on the methodology of Popov and Lewin[23], was used to measure the antioxidant activity of synthesized compounds with a Photochem® apparatus (Analytik Jena, Leipzig, Germany) against superoxide anion radicals generated from luminol, a photosensitizer, when exposed to UV light (Double Bore® phosphor lamp, output 351 nm, 3 mWatt/cm^2). The antioxidant activity was measured using ACL (Antioxidant Capacity of Liposoluble substance) kit provided by the manufacturer designed to measure the antioxidant activity of lipophilic compounds[24]. […] The areas under the curves were calculated using the PCLsoft control and analysis software. […] This inhibition was used as a parameter for quantification and related to the decrease in the integral of PCL intensities caused by varying concentrations of Trolox. The observed inhibition of the signal was plotted against the concentration of Trolox added to the assay medium. The concentration of the added tested compounds was such that the generated luminescence during the 180-s sampling interval fell within the limits of the standard curve. The antioxidant assay was carried out in triplicate for each sample, and 20 μL of the diluted compound in HPLC-grade methanol (ACL) was sufficient to correspond to the standard curve.
It was decided to use a standard formulation oil in water (O/W).
In particular, molecules with phenolic hydroxyl in the ortho position on the phenyl ring (4, 5, 9, 10 and 13) had better and higher UVA/UVB ratio and critical wavelength, although they have the SPF value less than lead compound. Formulation containing products 2 and 14, which have a phenolic hydroxyl at the para position on the phenyl ring, have shown good values in terms of SPF, greater UVA protection factor, critical wavelength and also higher UVA/UVB ratio than PBSA, but yet lower than the molecules containing hydroxyl on the phenyl ring in ortho. […] Compound 8 has lower SPF than 3, but higher than PBSA; in comparison with 3, molecules 8 and 12 presented higher UVA/UVB ratio and critical wavelength. Regarding compounds with three hydroxyls on phenyl ring, they have good UVA filtering parameters, their critical wavelengths are the highest and SPF is higher than PBSA for molecule 6, while SPF of 15 is slightly lower and decreases further in molecule 11. Thus, it can be observed that parameters are mainly influenced by the number and position of the hydroxyl groups on the phenyl ring rather than the substituent in the 5-position of benzimidazole. Concomitantly, all formulations were analyzed to assess whether the antioxidant power was maintained. […] In Table 4, the antioxidant activity, measured by PCL method, of finished formulations is reported; as it can be seen results were in agreement with that obtained testing the pure compounds. […] Formulations containing compounds 3, 8 and 12 presented highest antioxidant capabilities; these are followed, but with important decrease in antioxidant capacity, by formulations with compounds 6, […] and 15 that have three hydroxyl moieties on phenyl ring.

[4] = tested on: NCTC-2544 cells; assay: Phototoxicity / cellular photoprotection, UVA or UVB irradiation, MTT test; settings: for viability at 50 µM: Homo sapiens, NCTC-2544, light or radiation study, 48 h
Experimental: An immortalized, nontumorigenic cell line of human keratinocytes (NCTC-2544) was grown in a DMEM medium (Sigma-Aldrich Milan, Italy), supplemented with 115 units/mL of penicillin G, 115 μg/mL streptomycin, and 10% fetal calf serum (Invitrogen, Milan, Italy). Individual wells of a 96-well tissue culture microtiter plates (Falcon, Becton–Dickinson) were inoculated with 100 μL of complete medium containing 5 × 10^3 NCTC-2544. The plates were incubated at 37 °C in a humidified (5% CO2) incubator for 18 h prior to the experiments.
Two HPW 125 Philips lamps, mainly emitting at 365 nm, were used for UVA irradiation experiments. The spectral irradiance of the source was 4.0 mWcm^−^2 as measured at the sample level by a Cole-Parmer Instrument Company radiometer (Niles, IL) equipped with a 365-CX sensor. One or two PL-S 9 W/12 Philips lamps (280–370 nm; peak at 315 nm) were used for UVB irradiation experiments. To restrict the incident radiation to the range 305–370 nm, a glass filter (Schott SWG-305) was used. Total energy was detected by the same equipped with a sensor (model CX-312).
After medium removal, 100 μL of the drug solution, dissolved in DMSO and diluted with Hank’s Balanced Salt Solution (HBSS pH =7.2), was added to each well, incubated at 37 °C for 30 min, and then irradiated (20 J/cm^2 for UVA and 0.5 and 1 J/cm^2 for UVB). After irradiation, the solution was replaced with the medium and the plates were further incubated for 48 h. Cell viability was assayed by the MTT [(3–(4,5-dimethylthiazol-2-yl)-2,5 diphenyl tetrazolium bromide)] test as previously described by Mosmann[27].
Molecules were verified for their photocytotoxicity in the same cell line; the cells were treated with 50 μM solutions of compound and after 30 min were irradiated with 20 J/cm^2 UVA or with UVB at two energy amounts: 0.5 J/cm^2 and 1 J/cm^2 UVB. […] After irradiation, the solution was replaced with growth medium and the cells were further incubated for 48 h, and then, cell viability was assessed by MTT assay. […] The phototoxicity of tested molecules was compared with the ratio of cell survival of irradiated keratinocytes without substance (IC = irradiated control).

λ max ([2]; aqueous solution at pH 7): 325 nm
ɛ (molar extinction coefficient) ([2]; aqueous solution at pH 7, at λ max, linear regression Lambert–Beer): 12 000
SMILES: Oc1ccc(-c2nc3ccccc3[nH]2)c(O)c1O [Compound 11, 2-(2,3,4-Trihydroxy-phenyl)-1H-benzimidazole]
DPPH [1]: 1811.02 ± 61.7 μmolTrolox/mmol
PCL of finished formulation [3]: 153.35 ± 8.14 μmol Trolox/g formulation
viability at 50 µM ([4]; read-out: % Cell survival UVA 20 J/cm^2): 1.2 ± 0.2%
viability at 50 µM ([4]; read-out: % Cell survival UVB 0.5 J/cm^2): 45.6 ± 2.6%
viability at 50 µM ([4]; read-out: % Cell survival UVB 1 J/cm^2): 27 ± 2.4%
phototoxic effect (cell survival vs irradiated control) ([4]; NCTC-2544, UVA/UVB irradiation): phototoxic effect
